According to article PMC7650660, “Potential of Cell-Free Supernatant from Lactobacillus plantarum NIBR97, Including Novel Bacteriocins, as a Natural Alternative to Chemical Disinfectants” (Pharmaceuticals, 2020):
In brackets after ≈: the same amount, converted by molar mass. Peptide text beside a SMILES is read from it.

Tests used:
Salmonella Typhimurium = format: cell-based; settings: synthetic peptides against S. Typhimurium; Figure S3
Description: L. plantarum NIBR97 was incubated at 37 °C for 24 h in an MRS liquid medium (10 g/L peptone, 8 g/L meat extract, 4 g/L yeast extract, 20 g/L d(+)-glucose, 2 g/L dipotassium hydrogen phosphate, 5 g/L sodium acetate trihydrate, 2 g/L triammonium citrate, 0.2 g/L magnesium sulfate heptahydrate, and 0.05 g/L manganous sulfate tetrahydrate). The cultural broth was centrifuged for 20 min at 2000× g, and the centrifugal supernatant was collected and then sterilized by a 0.22 μm filtration. The sterilized fluid was either applied directly for the examination of antimicrobial activity or fractionated and stored at −80 °C until use. The assessment of antimicrobial activity on a microtiter plate was performed by some modification of the dilution assay of Wiegand et al.. The MIC50 and MIC90 were expressed as total proteins equivalent (μg) per volume (mL) of the sample, and the effect of proteinase K treatment was examined by a previously described procedure.
Figure 3. Antibacterial activity of synthetic Plantaricins identified from the L. plantarum NIBR97
genome. Pln 1, 2, 3, 4 and 5 were synthesized according to the amino acid sequences in Figure 3, and
further examined for their antibacterial activity against a Salmonella enterica serotype, S.
The Y axis in the graphs represents the relative growth of S. Typhimurium. […]

[1] = test system: HEK-293T cells (human host cells); test: Cytotoxic effect on host cells (bright-field images) in the lentivirus test; format: cell-based; settings: lentiviruses treated with 5 μg/μL of synthetic peptides
Description: (A) For fluorescence microscopy, we treated GFP-labeled lentiviruses with the cell-free supernatant for 5 min and 24 h, and then were infected in HEK-293T human host cells. The 1× and 5× correspond to the concentrations treated to the lentiviruses, 79.15 and 395.75 μg total proteins/mL, respectively. The bright-field images (Bright) indicate the HEK-293T cells, and the green signals in the fluorescent images (GFP) represent the GFP-labeled lentiviruses. (B) For scanning electron microscopy, the GFP-labeled lentiviruses were treated without (a) or with the cell-free supernatant (395.75 μg total proteins/mL) (b) for 5 min.
Figure 5 Fluorescence micrographs of HEK-293T cells infected with GFP-labeled lentiviruses treated with synthetic Pln 3 and 5. The lentiviruses were treated without (control) or with the synthetic peptides (1 to 5 μg/μL) Pln 3 (A) and 5 (B) for 5 min or 24 h, and then the HEK-293T human host cells were infected. The bright-field images (Bright) indicate the HEK-293T cells, and the green signals in the fluorescent images (GFP) represent the GFP-labeled lentiviruses.
For the anti-viral test, we co-incubated 2 μL of lentivirus soup (2.8 × 10^6 lentiviruses/μL) with 2 μL of test sample for 5 min and 24 h at 25 °C. After the co-incubation, 2 μL from the total 4 μL of the test sample–lentivirus mixture was infected in HEK-293T cells (1 × 10^4 cells per well).

Row | Structure (SMILES) | MIC50 (Salmonella Typhimurium) [µg/mL] | cytotoxicity on the human host cells [1]
1 | CC[C@H](C)[C@H](NC(=O)CNC(=O)[C@@H](NC(=O)[C@H](CO)NC(=O)CNC(=O)[C@@H](NC(=O)[C@H](CC(C)C)NC(=O)[C@H](CO)NC(=O)CNC(=O)[C@H](CC(C)C)NC(=O)[C@@H](N)C(C)C)[C@@H](C)CC)C(C)C)C(=O)NCC(=O)N[C@H](C(=O)N[C@@H](CC(C)C)C(=O)N[C@@H](CO)C(=O)N[C@@H](CO)C(=O)N[C@@H](CC(C)C)C(=O)N[C@@H](C)C(=O)N[C@@H](C)C(=O)N[C@@H](CCCNC(=N)N)C(=O)N[C@@H](Cc1ccc(O)cc1)C(=O)N[C@@H](CCCCN)C(=O)O)C(C)C [Pln 1] (H-VLGSLIGSVGIGVLSSLAARYK-OH) | 5480 (≈ 2540 µM) | –
2 | CSCC[C@H](NC(=O)CNC(=O)[C@@H](NC(=O)[C@@H]1CCCN1C(=O)[C@H](CCSC)NC(=O)CNC(=O)[C@H](CC(N)=O)NC(=O)[C@H](CC(N)=O)NC(=O)[C@H](Cc1ccc(O)cc1)NC(=O)[C@@H](NC(=O)[C@H](CCC(N)=O)NC(=O)[C@H](CS)NC(=O)[C@H](CCCNC(=N)N)NC(=O)[C@H](CCCNC(=N)N)NC(=O)[C@H](CO)NC(=O)[C@H](CCCCN)NC(=O)[C@@H](N)CCCCN)C(C)C)[C@@H](C)O)C(=O)N[C@@H](Cc1ccc(O)cc1)C(=O)N[C@H](C(=O)N[C@@H](CO)C(=O)N[C@@H](CS)C(=O)O)[C@@H](C)O [Pln 3] (H-KKSRRCQVYNNGMPTGMYTSC-OH) | 5170 (≈ 2130 µM) | exhibited a cytotoxicity on the human host cells
3 | CC[C@H](C)[C@H](N)C(=O)N[C@@H](Cc1ccc(O)cc1)C(=O)N1CCC[C@H]1C(=O)N[C@@H](CCC(=O)O)C(=O)N[C@@H](CCCCN)C(=O)N[C@@H](CCC(N)=O)C(=O)N1CCC[C@H]1C(=O)N[C@@H](CCC(=O)O)C(=O)N[C@@H](CCC(=O)O)C(=O)N1CCC[C@H]1C(=O)N[C@H](C(=O)N[C@@H](CCCNC(=N)N)C(=O)N[C@@H](CCCNC(=N)N)C(=O)O)C(C)C [Pln 2] (H-IYPEKQPEEPVRR-OH) | 4840 (≈ 2950 µM) | –
4 | CC[C@H](C)[C@H](NC(=O)CNC(=O)[C@@H](NC(=O)[C@H](C)NC(=O)[C@H](CCSC)NC(=O)[C@H](C)NC(=O)[C@H](CCCCN)NC(=O)[C@H](Cc1ccccc1)NC(=O)[C@@H]1CCCN1C(=O)[C@H](CCC(=O)O)NC(=O)[C@H](CCCNC(=N)N)NC(=O)[C@@H](NC(=O)[C@@H](NC(=O)[C@@H]1CCCN1)[C@@H](C)CC)C(C)C)C(C)C)C(=O)N[C@H](C(=O)N[C@@H](CC(C)C)C(=O)N[C@@H](C)C(=O)N[C@H](C(=O)N[C@@H](CCSC)C(=O)N[C@@H](CO)C(=O)NCC(=O)N[C@@H](CC(C)C)C(=O)N[C@@H](CC(C)C)C(=O)N[C@H](C(=O)N[C@H](C(=O)O)[C@@H](C)O)C(C)C)C(C)C)[C@@H](C)CC [Pln 4] (H-PIVREPFKAMAVGIILAVMSGLLVT-OH) | 5650 (≈ 2150 µM) | –
5 | CC(C)C[C@H](NC(=O)[C@H](CCCNC(=N)N)NC(=O)[C@H](CC(N)=O)NC(=O)[C@H](CCCNC(=N)N)NC(=O)[C@H](CC(C)C)NC(=O)[C@H](Cc1ccccc1)NC(=O)[C@H](CCCNC(=N)N)NC(=O)[C@H](CCCCN)NC(=O)[C@H](CCCCN)NC(=O)[C@H](C)NC(=O)[C@@H](N)CCCCN)C(=O)N[C@@H](CO)C(=O)N[C@@H](CCC(N)=O)C(=O)N[C@@H](CCC(N)=O)C(=O)N[C@@H](C)C(=O)N[C@@H](CCCNC(=N)N)C(=O)N[C@@H](CCCCN)C(=O)N[C@@H](C)C(=O)N[C@@H](CCCNC(=N)N)C(=O)N[C@H](C(=O)N[C@@H](CCCCN)C(=O)O)[C@@H](C)O [Pln 5] (H-KAKKRFLRNRLSQQARKARTK-OH) | 4450 (≈ 1720 µM) | exhibited a cytotoxicity on the human host cells
